Patent publication US11572362B2, “Pyrrolo[1,2-b]pyridazine derivatives” (Gilead Sciences, Inc., priority 2018, dated 2023)

How the values were obtained:
TNFα = test: IRAK4 Monocyte TNFα Cell Based Assay; conditions: Monocyte; cryopreserved human monocytes, 50 pg/ml LPS, compound 1 hour pre-treatment, 4 hours stimulation, TNFα by TR-FRET
Experimental: IRAK4 Monocyte TNFα Cell Based Assay Procedure:
The cell suspension was then plated at a density of 5,000 cells/well onto black 384 well Greiner clear bottom plates. Plates were pre-spotted with test compounds and serially diluted in DMSO where 40 nL/well were delivered using the Echo 550 acoustic liquid dispenser (Labcyte®) for a final DMSO concentration of 0.1%. Plated cells were treated with compound for 1 hour at 37° C. Cells were then stimulated with 50 pg/ml of LPS (Sigma) excluding outside columns of plate used for unstimulated cell control wells. Cells were incubated for an additional 4 hours at 37° C. Cells were then spun out of the media and 5 μl of sample were taken and analyzed for total TNFα content using the TR-FRET Human TNFα detection system (CisBio). This system utilizes two labeled antibodies (cryptate and XL665) that bind to two different epitopes of the TNFα molecule and produce FRET signal proportional to the concentration of TNFα in the sample. Detection antibodies are mixed 50:50 and 5 μL were dispensed into each well. Plates were covered with clear seals and incubated at room temp overnight. The following morning plates were read using an Envision 2103 Multilabeled reader (PerkinElmer) with excitation/emission/FRET emission at 340 nm/615 nm/665 nm, respectively. Fluorescence intensities at 615 nm and 665 nm emission wavelengths were expressed as a ratio (665 nm/615 nm). Percent of control was calculated as follows: % Control=100×(RatioSample−Ratio0% Stimulation)/(Ratio100% Stimulation−Ratio0% Stimulation)
where unstimulated cells (0% stimulation) were the negative control and stimulated cells (100% stimulation) were used as the positive control.

IRAK4 = IRAK4 (Homo sapiens (Human), UniProt Q9NWZ3); test: IRAK4 Biochemical Assay (TR-FRET/HTRF); conditions: IRAK4 enzyme 0.75 nM, 500 μM ATP, 2 μM STK1 peptide, 120 min
Experimental: IRAK4 Biochemical Assay Procedure:
IRAK4 enzyme (Carna Biosciences, Chuo-ku, Kobe, Japan) activity was measured by detecting phosphorylated peptide substrate formation using an antibody against the phosphorylated peptide substrate. This is a time-resolved fluorescence resonance energy transfer (TR-FRET) immunoassay, based on the STK1 KinEASE Assay (Cisbio, Bedford, Mass.). The assay was designed as a simple two-step, endpoint assay (a 5 μl enzyme reaction followed by 5 μl stop and detect Solution) performed in ProxiPlate-384 Plus plates (Perkin Elmer, Waltham, Mass.). Staurosporine, a non-selective kinase inhibitor was used as a positive control. Compounds diluted in DMSO were spotted into 384 well plates using a Labcyte® Echo 550 Liquid Handling System prior to addition of IRAK4 enzyme and peptide substrate. Reaction solutions were delivered using a Multi-Flo (Bio-Tek Instruments). The enzyme and peptide solution was incubated with compound for 15 minutes at room temp before the reaction was initiated by the addition of ATP. The standard 5 μl reaction mixture contained 500 μM ATP, 2 μM peptide (STK1 Peptide), 0.75 nM of IRAK4 in reaction buffer (50 mM HEPES, pH 7.0, 0.02% NaN3, 0.01% BSA, 0.1 mM Orthovanadate, 5 mM MgCl2, 0.025% NP-40, 1 mM DTT). After 120 min of incubation at room temperature, 5 μl of Stop and Detect Solution (1:100 Cryptate labeled anti-phosphorylated peptide antibody solution and 125 nM Tracer in a 50 mM HEPES pH 7.0 detection buffer containing sufficient EDTA) was added. The plate was then further incubated for 60 minutes at room temperature and read on Envision 2103 Multilabeled reader (PerkinElmer) with excitation/emission/FRET emission at 340 nm/615 nm/665 nm, respectively. Fluorescence intensities at 615 nm and 665 nm emission wavelengths were expressed as a ratio (665 nm/615 nm). Percentage of inhibition was calculated as below: % Inhibition=100×(RatioSample−Ratio0% Inhibition)/(Ratio100% Inhibition−Ratio0% Inhibition)
The 0% inhibition value comes from control wells lacking inhibitor. The 100% inhibition value comes from control wells containing a saturating amount of known inhibitor staurosporine.

Chain of IRAK4 (Q9NWZ3 whole entry): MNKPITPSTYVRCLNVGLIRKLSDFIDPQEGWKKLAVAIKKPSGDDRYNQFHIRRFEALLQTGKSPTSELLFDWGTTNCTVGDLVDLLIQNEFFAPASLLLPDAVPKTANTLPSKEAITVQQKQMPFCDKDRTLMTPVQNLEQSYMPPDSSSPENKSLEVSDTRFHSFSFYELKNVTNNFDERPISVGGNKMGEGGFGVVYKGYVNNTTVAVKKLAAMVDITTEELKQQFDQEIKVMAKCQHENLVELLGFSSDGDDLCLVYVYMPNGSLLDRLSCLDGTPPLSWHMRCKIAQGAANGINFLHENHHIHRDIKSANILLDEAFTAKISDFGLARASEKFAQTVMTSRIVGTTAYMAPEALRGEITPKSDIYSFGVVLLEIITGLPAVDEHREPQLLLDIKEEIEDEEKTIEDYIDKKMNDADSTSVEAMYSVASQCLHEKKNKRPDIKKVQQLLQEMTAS

Row | EC50 (TNFα) | IC50 (IRAK4) | SMILES
1 | 35 nM | < 1 nM | Cn1nnc([C@H]2CC[C@H](Nc3cc(-c4ccc5cc(C#N)cnn45)ncc3C(=O)NC[C@@H](F)C(C)(C)O)CC2)n1 [Compound 15, 6-(3-cyanopyrrolo[1,2-b]pyridazin-7-yl)-N-((R)-2-fluoro-3-hydroxy-3-methylbutyl)-4-(((1r,4R)-4-(2-methyl-2H-tetrazol-5-yl)cyclohexyl)amino)nicotinamide]
2 | 26 nM | < 1 nM | Cn1nnnc1[C@H]1CC[C@H](Nc2cc(-c3ccc4cc(C#N)cnn34)ncc2C(=O)NC[C@@H](F)C(C)(C)O)CC1 [Compound 16, 6-(3-cyanopyrrolo[1,2-b]pyridazin-7-yl)-N-((R)-2-fluoro-3-hydroxy-3-methylbutyl)-4-(((1r,4R)-4-(1-methyl-1H-tetrazol-5-yl)cyclohexyl)amino)nicotinamide]
3 | 33 nM | 1 nM | CC(C)(O)[C@H](F)CNC(=O)c1cnc(-c2ccc3cc(C#N)cnn23)cc1N[C@H]1CC[C@H](c2cn(C(F)F)cn2)CC1 [Compound 17, 6-(3-cyanopyrrolo[1,2-b]pyridazin-7-yl)-4-(((1r,4R)-4-(1-(difluoromethyl)-1H-imidazol-4-yl)cyclohexyl)amino)-N-((R)-2-fluoro-3-hydroxy-3-methylbutyl)nicotinamide]
4 | 27 nM | 1 nM | CC(C)(O)[C@H](F)CNC(=O)c1cnc(-c2ccc3cc(C#N)cnn23)cc1N[C@H]1CC[C@H](c2cn(C(F)F)nn2)CC1 [Compound 18, 6-(3-cyanopyrrolo[1,2-b]pyridazin-7-yl)-4-(((1r,4R)-4-(1-(difluoromethyl)-1H-1,2,3-triazol-4-yl)cyclohexyl)amino)-N-((R)-2-fluoro-3-hydroxy-3-methylbutyl)nicotinamide]
5 | 26 nM | < 1 nM | Cn1cc([C@H]2CC[C@H](Nc3cc(-c4ccc5cc(C#N)cnn45)ncc3C(=O)NC[C@@H](F)C(C)(C)O)CC2)nn1 [Compound 19, 6-(3-cyanopyrrolo[1,2-b]pyridazin-7-yl)-N-((R)-2-fluoro-3-hydroxy-3-methylbutyl)-4-(((1r,4R)-4-(1-methyl-1H-1,2,3-triazol-4-yl)cyclohexyl)amino)nicotinamide]
6 | 49 nM | 1 nM | CC(C)(O)[C@H](F)CNC(=O)c1cnc(-c2ccc3cc(C#N)cnn23)cc1N[C@H]1CC[C@H](c2cn(C3CC3)nn2)CC1 [Compound 20, 6-(3-cyanopyrrolo[1,2-b]pyridazin-7-yl)-4-(((1r,4R)-4-(1-cyclopropyl-1H-1,2,3-triazol-4-yl)cyclohexyl)amino)-N-((R)-2-fluoro-3-hydroxy-3-methylbutyl)nicotinamide]
7 | 60 nM | 2 nM | CC(C)(O)[C@H](F)CNC(=O)c1cnc(-c2ccc3cc(C#N)cnn23)cc1NC1CCC(c2ncn(C(F)F)n2)CC1 (stereo partly drawn) [Compound 21, (R)-6-(3-cyanopyrrolo[1,2-b]pyridazin-7-yl)-4-((4-(1-(difluoromethyl)-1H-1,2,4-triazol-3-yl)cyclohexyl)amino)-N-(2-fluoro-3-hydroxy-3-methylbutyl)nicotinamide]
8 | 67 nM | 2 nM | CC(C)(O)[C@H](F)CNC(=O)c1cnc(-c2ccc3cc(C#N)cnn23)cc1N[C@H]1CC[C@H](c2ncn(C(F)F)n2)CC1 [Compound 22, 6-(3-cyanopyrrolo[1,2-b]pyridazin-7-yl)-4-(((1r,4R)-4-(1-(difluoromethyl)-1H-1,2,4-triazol-3-yl)cyclohexyl)amino)-N-((R)-2-fluoro-3-hydroxy-3-methylbutyl)nicotinamide]
9 | 38 nM | 1 nM | CC(C)(O)[C@H](F)CNC(=O)c1cnc(-c2ccc3cc(C#N)cnn23)cc1N[C@H]1CC[C@H](n2ccc(C(F)F)n2)CC1 [Compound 23, 6-(3-cyanopyrrolo[1,2-b]pyridazin-7-yl)-4-(((1r,4R)-4-(3-(difluoromethyl)-1H-pyrazol-1-yl)cyclohexyl)amino)-N-((R)-2-fluoro-3-hydroxy-3-methylbutyl)nicotinamide]
10 | 19 nM | < 1 nM | CC(C)(O)[C@H](F)CNC(=O)c1cnc(-c2ccc3cc(C#N)cnn23)cc1N[C@H]1CC[C@H](n2cc(C#N)cn2)CC1 [Compound 24, 4-(((1r,4R)-4-(4-cyano-1H-pyrazol-1-yl)cyclohexyl)amino)-6-(3-cyanopyrrolo[1,2-b]pyridazin-7-yl)-N-((R)-2-fluoro-3-hydroxy-3-methylbutyl)nicotinamide]
11 | 29 nM | 2 nM | CC(C)(O)[C@H](F)CNC(=O)c1cnc(-c2ccc3cc(C#N)cnn23)cc1N[C@H]1CC[C@H](n2cc(F)cn2)CC1 [Compound 25, 6-(3-cyanopyrrolo[1,2-b]pyridazin-7-yl)-4-(((1r,4R)-4-(4-fluoro-1H-pyrazol-1-yl)cyclohexyl)amino)-N-((R)-2-fluoro-3-hydroxy-3-methylbutyl)nicotinamide]
12 | 91 nM | < 1 nM | Cc1cnn([C@H]2CC[C@H](Nc3cc(-c4ccc5cc(C#N)cnn45)ncc3C(=O)NC[C@@H](F)C(C)(C)O)CC2)c1 [Compound 26, 6-(3-cyanopyrrolo[1,2-b]pyridazin-7-yl)-N-((R)-2-fluoro-3-hydroxy-3-methylbutyl)-4-(((1r,4R)-4-(4-methyl-1H-pyrazol-1-yl)cyclohexyl)amino)nicotinamide]
13 | 58 nM | < 1 nM | CC(C)(O)[C@H](F)CNC(=O)c1cnc(-c2ccc3cc(C#N)cnn23)cc1N[C@H]1CC[C@H](n2cc(CC#N)cn2)CC1 [Compound 27, 4-(((1r,4R)-4-(4-(cyanomethyl)-1H-pyrazol-1-yl)cyclohexyl)amino)-6-(3-cyanopyrrolo[1,2-b]pyridazin-7-yl)-N-((R)-2-fluoro-3-hydroxy-3-methylbutyl)nicotinamide]
14 | 187 nM | 2 nM | CC(C)(O)[C@H](F)CNC(=O)c1cnc(-c2ccc3cc(C#N)cnn23)cc1N[C@H]1CC[C@H](n2nccc2C(F)F)CC1 [Compound 28, 6-(3-cyanopyrrolo[1,2-b]pyridazin-7-yl)-4-(((1r,4R)-4-(5-(difluoromethyl)-1H-pyrazol-1-yl)cyclohexyl)amino)-N-((R)-2-fluoro-3-hydroxy-3-methylbutyl)nicotinamide]
15 | 381 nM | 7 nM | CC(C)(O)[C@H](F)CNC(=O)c1cnc(-c2ccc3cc(C#N)cnn23)cc1N[C@H]1CC[C@H](n2nc(C(F)F)cc2C(F)F)CC1 [Compound 29, 4-(((1r,4R)-4-(3,5-bis(difluoromethyl)-1H-pyrazol-1-yl)cyclohexyl)amino)-6-(3-cyanopyrrolo[1,2-b]pyridazin-7-yl)-N-((R)-2-fluoro-3-hydroxy-3-methylbutyl)nicotinamide]
16 | 136 nM | 4 nM | CC(C)(O)[C@H](F)CNC(=O)c1cnc(-c2ccc3cc(C#N)cnn23)cc1N[C@H]1CC[C@H](n2cc(C(F)(F)F)cn2)CC1 [Compound 30, 6-(3-cyanopyrrolo[1,2-b]pyridazin-7-yl)-N-((R)-2-fluoro-3-hydroxy-3-methylbutyl)-4-(((1r,4R)-4-(4-(trifluoromethyl)-1H-pyrazol-1-yl)cyclohexyl)amino)nicotinamide]
17 | 40 nM | 1 nM | CC(C)(O)[C@H](F)CNC(=O)c1cnc(-c2ccc3cc(C#N)cnn23)cc1N[C@H]1CC[C@H](n2ccnn2)CC1 [Compound 31, 4-(((1r,4R)-4-(1H-1,2,3-triazol-1-yl)cyclohexyl)amino)-6-(3-cyanopyrrolo[1,2-b]pyridazin-7-yl)-N-((R)-2-fluoro-3-hydroxy-3-methylbutyl)nicotinamide]
